Here are results for two molecules from ChEMBL document CHEMBL1150095, “Antitumor activity and stereochemistry of acetylenic alcohols from the sponge Cribrochalina vasculum” (1995).

Assay type in all cases: functional
One experiment deals with NCI-H522. As to the kind of experiment: Antitumor activity against human NCI-H522 cells.
Experiment [1] deals with IGROV-1. Briefly: Antitumor activity against human IGROV1 cells.
Experiment [2] deals with IGROV-1. Briefly: Antitumor activity against human IGROV1 cell xenografted athymic mouse assessed as increase in life span at 50 mg/kg, ip once daily. The conditions noted are these: route intraperitoneal.

Calls of active or inactive are those of the source. The calls are words filed in the database; no cut-off is given here.

With `C#C[C@@H](O)/C=C/CCCCCCCCCCCCCCC`, the result in the experiment with NCI-H522 and in the experiment with IGROV-1 [1] was Active. Further, the Activity with IGROV-1 [2] turned out to be 36.5 days.
As for `C#C[C@@H](O)/C=C/CCCCCCCCC/C=C\CCCCC(C)C`, the result in the experiment with NCI-H522 and in the experiment on IGROV-1 [1] was Active.
